Data set [1] concerns human follicular lymphoma cell line (DoHH2). The data set is described as follows: Annexin V apoptosis assay, follicular lymphoma cell line DoHH2. Format: cell-based. Conditions: DoHH2, 48 hours, 25 μM alone. How it is done: (§1) Next the cells were cultivated in the same way, but in the combined presence of dasatinib (25 μM) and the individual trioxanes T16, T45, and T7 in concentrations of 1.0 and 10 μM (see Tables below). As mentioned above, the Annexin V apoptosis assay was used to detect the Annexin V protein on cells undergoing apoptosis. Dead cells (post-apoptopic) were determined by positivity toward propidium iodide. The percentages of apoptopic, post-apoptopic cells, and their total are shown for each test. […] Synergy is noted as moderate (*), high (**), or exceptionally high (***).
Human Follicular Lymphoma (DoHH2)

For data set [2], the system named is human Burkitt's lymphoma cell line (Raji). As to the kind of experiment: Annexin V apoptosis assay, Burkitt's lymphoma cell line Raji. Conditions: 48 hours, 25 μM alone. Format: cell-based. How it is done: as §1
Human Burkitt's Lymphoma (Raji)

Data set [3] deals with MCF-7 breast cancer cell line. The data set is described as follows: Annexin V apoptosis assay, poorly proliferating MCF-7 breast cancer cells. To be noted: MCF-7, 48 hours, vehicle baseline 13-18%.
Description: (§2) The same experimental set-up was also utilized to test the synergistic capacity of trioxane T59 with imatinib.
(§3) The test read-out was the Annexin V apoptosis assay kit from Becton-Dickinson, which detects the presence of the Annexin V protein on the surface of cells undergoing apoptosis and positivity toward propidium iodide for dead cells.
In data set [4] the test system is MDA-468 breast cancer cell line. As to the kind of experiment: Annexin V apoptosis assay, fast proliferating MDA-468 breast cancer cells. Conditions: MDA-468, 48 hours, vehicle baseline 13-18%.
Description: as §2, §3
The test system of the next data set is CD® rats. As to the kind of experiment: Two-week toxicity study in CD rats. Format: in vivo. How it is done: As a bellwether, the toxicity of trioxane T7 has been evaluated and compared with that of artemether in CD® rats following two weeks of oral administration (gavage) and intramuscular injection, respectively. Trioxane T7 was administered at doses of 0, 15, 30, and 60 mg/kg/day in Lipomul® emulsion, while artemether was dosed at 0, 10, 20, and 40 mg/kg/day.

Data set [5] concerns rats. Conditions: Brewer et al. 1994; cited from earlier work.
The next data set relates to dogs. Conditions: Brewer et al. 1994; cited from earlier work.
The test system of data set [6] is rats. The data set is described as follows: Further testing in a group of rats (mortality). Conditions: 40 mg/kg/day.

“And” between values parts separate entries of the source, which are not always exact repeats. Equal entries are not always repeated.

Regarding `Cc1nc(Nc2ncc(C(=O)Nc3c(C)cccc3Cl)s2)cc(N2CCN(CCO)CC2)n1` [Dasatinib, dasatinib], the “Apoptopic Cells, in %” value in data set [1] worked out at 4.58%; in data set [2] it was 7.9%. Also, the “Post-apoptopic Cells, in %” value in data set [1] came out at 11.76%; in data set [2] it was 15.18%. Besides, the entries for the “Total Dead Cells, in %” value in data set [1] (vehicle baseline 13-18%) and in data set [2] (vehicle baseline 13-18%) were 16.34% and 23.15%, respectively.
Consider `Cc1ccc(NC(=O)c2ccc(CN3CCN(C)CC3)cc2)cc1Nc1nccc(-c2cccnc2)n1` [Imatinib, imatinib], for which the “percentage of dead cells (dead+apoptotic)” value in data set [3] (10 μM alone) was 14.05% and 14.15%; in data set [4] (10 μM alone), 13.60% and 13.16%.
Take `Oc1ccc(C=Cc2cc(O)cc(O)c2)cc1` [Resveratrol, resveratrol]: the “percentage of dead cells (dead+apoptotic)” value in data set [3] (1 μM alone) is 16.05%; in data set [4] (1 μM alone), 11.30%.
As to `CO[C@H]1O[C@@H]2O[C@@]3(C)CC[C@H]4[C@H](C)CC[C@@H]([C@H]1C)[C@@]24OO3` [artemether], the toxic effects entry in the data set with CD® rats (two weeks intramuscular injection, 10, 20, 40 mg/kg/day) is “CNS excitability, neuronal chromatolysis, and gliosis in the brain stem”. Besides, the “toxic effects at mid-dose” value in the data set with CD® rats (two weeks intramuscular injection, mid-dose (of 10, 20, 40 mg/kg/day)) was “neurotoxic manifestations were observed, including hematoxicity and hepatotoxicity”. Also, the reported toxicity entry with rats [5] and in the data set with dogs was “neurotoxicity” throughout. Further, in the data set with rats [6], the mortality entry was “killed most of the rats”.

The values are drawn from patent US9763915B2, “Adjuvants in anti-cancer chemotherapy” (PharmOxaco SáRL, priority 2013, dated 2017).
